Laboratory results as given in US11111245B2, “Derivatives of N-cycloalkyl/heterocycloalkyl-4-(imidazo[1,2-a]pyridine)pyrimidin-2-amine as therapeutic agents” (Aucentra Therapeutics Pty Ltd, priority 2017, dated 2021).

What was measured:
CDK9/T1 = CDK9/T1 (Homo sapiens, UniProt P50750); test: ADP Glo Kinase assay CDK9/T1; format: biochemical; details: CDK9T1; read-out: CDK inhibition, Ki (μM) CDK9T1
How it was run: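 ADP Glo luminescence, in-house: CDK4/D1, CDK6/D3 on RB-CTF substrate (Tris pH 7.5, MgCl2, DTT, BSA); CDK9/T1 on RBER-IRStide. Reaction 40 min, 37° C after ATP addition. 10-point 1:3 series, 10 μM to 0.5 nM. IC50 by 4-parameter logistic; Ki derived using ATP Km.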

CDK4/D1 = CDK4/D1 (Homo sapiens, UniProt P11802); test: ADP Glo Kinase assay CDK4/D1; format: biochemical; details: CDK4D1; for Ki: read-out: CDK inhibition, Ki (μM) CDK4D1; for remaining activity at 10 µM: compound at 10 μM, read-out: residual activity (%) at 10 μM CDK4D1
Chain of CDK4/D1 (P11802 whole entry): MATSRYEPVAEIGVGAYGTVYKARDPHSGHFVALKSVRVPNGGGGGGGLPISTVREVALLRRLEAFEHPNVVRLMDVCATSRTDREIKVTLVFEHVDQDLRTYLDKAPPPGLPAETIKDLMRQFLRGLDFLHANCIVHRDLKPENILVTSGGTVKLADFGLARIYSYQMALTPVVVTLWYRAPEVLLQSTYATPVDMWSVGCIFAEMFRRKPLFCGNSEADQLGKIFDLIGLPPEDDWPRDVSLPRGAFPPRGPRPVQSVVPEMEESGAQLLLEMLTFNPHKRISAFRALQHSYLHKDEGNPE
Chain of CDK4/D1 (P24385 whole entry partner): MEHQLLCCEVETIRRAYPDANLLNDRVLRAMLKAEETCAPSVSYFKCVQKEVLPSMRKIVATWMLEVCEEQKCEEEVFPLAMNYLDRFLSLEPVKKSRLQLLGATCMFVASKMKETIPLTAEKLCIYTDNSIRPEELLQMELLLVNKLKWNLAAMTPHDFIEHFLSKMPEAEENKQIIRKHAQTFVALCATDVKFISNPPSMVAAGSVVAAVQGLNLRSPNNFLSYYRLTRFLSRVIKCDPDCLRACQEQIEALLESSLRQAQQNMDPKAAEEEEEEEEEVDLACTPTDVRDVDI
How it was run: (§1)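 Luminescent ADP detection measured activity after a 40 min, 37° C ATP-initiated reaction, using RB-CTF for CDK4/D1 and CDK6/D3 and RBER-IRStide for CDK9/T1. Controls lacked or contained kinase. Values: IC50 by four-parameter nonlinear regression, Ki from ATP Km.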

leukemia cell lines = test: Resazurin cell viability assay on leukemia cell lines (72 h growth inhibition, GI50); format: cell-based; details: Homo sapiens, MV4-11 cells
How it was run: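 Viability is measured by MTT in solid tumour cells and by resazurin in leukaemia cells. Reported values are GI50s calculated with non-linear regression analysis.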

CDKs and other kinases [1] = target: T1, CDKs and other kinases (Homo sapiens, UniProt P50613); test: Radiometric kinase assay (Eurofins Pharma Discovery or Reaction Biology Corporation Kinase Profiler); format: biochemical; details: CDK7H; for Ki: read-out: CDK inhibition, Ki (μM) CDK7H; for remaining activity at 10 µM: compound at 10 μM, read-out: residual activity (%) at 10 μM CDK7H
T1 construct: other: CDK7H; residual activity (%) at 10 μM CDK7H; compound at 10 μM
T1 sequence (P50613 whole entry): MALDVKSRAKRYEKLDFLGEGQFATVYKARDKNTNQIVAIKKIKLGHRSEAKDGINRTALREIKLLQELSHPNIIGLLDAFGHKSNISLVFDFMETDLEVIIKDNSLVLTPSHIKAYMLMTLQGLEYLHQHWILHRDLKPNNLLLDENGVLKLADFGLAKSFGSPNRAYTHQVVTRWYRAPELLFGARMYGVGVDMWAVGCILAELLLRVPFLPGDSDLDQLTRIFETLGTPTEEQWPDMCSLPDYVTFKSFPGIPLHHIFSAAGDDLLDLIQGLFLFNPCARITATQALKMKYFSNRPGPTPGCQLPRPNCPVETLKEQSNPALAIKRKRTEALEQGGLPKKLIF
How it was run: (§2)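 Other CDKs and further kinases were profiled externally by radiometric assay. In-house ADP Glo assays covered CDK4/D1 and CDK6/D3 (RB-CTF substrate, pH 7.5 Tris buffer with MgCl2, DTT, BSA) and CDK9/T1 (RBER-IRStide substrate), 40 min at 37° C.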

CDKs and other kinases [2] = target: T2, CDKs and other kinases (Homo sapiens, UniProt P06493); test: as above; format: biochemical; details: CDK1B; for Ki: read-out: CDK inhibition, Ki (μM) CDK1B; for remaining activity at 10 µM: compound at 10 μM, read-out: residual activity (%) at 10 μM CDK1B
T2 construct: other: CDK1B; residual activity (%) at 10 μM CDK1B; compound at 10 μM
T2 sequence (P06493 whole entry): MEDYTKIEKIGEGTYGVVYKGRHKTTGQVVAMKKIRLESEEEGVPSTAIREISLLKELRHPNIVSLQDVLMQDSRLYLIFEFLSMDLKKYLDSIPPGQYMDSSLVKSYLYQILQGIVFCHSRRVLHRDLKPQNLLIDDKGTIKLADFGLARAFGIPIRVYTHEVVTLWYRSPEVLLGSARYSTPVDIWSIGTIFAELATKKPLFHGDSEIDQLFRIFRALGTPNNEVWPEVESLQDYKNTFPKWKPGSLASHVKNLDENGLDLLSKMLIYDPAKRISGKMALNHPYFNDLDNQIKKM
How it was run: as §2

CDKs and other kinases [3] = target: T3, CDKs and other kinases (Homo sapiens, UniProt P24941); test: as above; format: biochemical; details: CDK2A; for Ki: read-out: CDK inhibition, Ki (μM) CDK2A; for remaining activity at 10 µM: compound at 10 μM, read-out: residual activity (%) at 10 μM CDK2A
T3 construct: other: CDK2A; residual activity (%) at 10 μM CDK2A; compound at 10 μM
How it was run: as §2

CDK6/D3 = CDK6/D3 (Homo sapiens, UniProt Q00534); test: ADP Glo Kinase assay CDK6/D3; format: biochemical; details: CDK6D3; for Ki: read-out: CDK inhibition, Ki (μM) CDK6D3; for remaining activity at 10 µM: compound at 10 μM, read-out: residual activity (%) at 10 μM CDK6D3
Chain of CDK6/D3 (Q00534 whole entry): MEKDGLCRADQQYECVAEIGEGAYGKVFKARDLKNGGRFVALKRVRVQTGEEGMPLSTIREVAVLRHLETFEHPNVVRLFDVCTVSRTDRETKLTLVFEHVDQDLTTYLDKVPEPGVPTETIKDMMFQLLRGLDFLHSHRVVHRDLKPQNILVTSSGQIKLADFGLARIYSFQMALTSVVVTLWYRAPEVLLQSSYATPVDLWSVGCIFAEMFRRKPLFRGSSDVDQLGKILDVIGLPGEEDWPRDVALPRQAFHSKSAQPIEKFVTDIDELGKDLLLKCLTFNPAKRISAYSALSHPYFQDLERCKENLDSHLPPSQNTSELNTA
Chain of CDK6/D3 (P30281 whole entry partner): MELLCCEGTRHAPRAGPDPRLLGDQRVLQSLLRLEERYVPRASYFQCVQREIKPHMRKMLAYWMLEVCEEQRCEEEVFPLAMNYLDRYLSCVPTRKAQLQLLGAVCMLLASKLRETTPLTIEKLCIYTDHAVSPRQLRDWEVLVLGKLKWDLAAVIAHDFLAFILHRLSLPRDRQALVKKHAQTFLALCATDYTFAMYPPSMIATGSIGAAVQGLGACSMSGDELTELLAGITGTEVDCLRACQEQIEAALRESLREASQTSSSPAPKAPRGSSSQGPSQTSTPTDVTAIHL
How it was run: as §1

Chain of CDK9/T1 (P50750 whole entry): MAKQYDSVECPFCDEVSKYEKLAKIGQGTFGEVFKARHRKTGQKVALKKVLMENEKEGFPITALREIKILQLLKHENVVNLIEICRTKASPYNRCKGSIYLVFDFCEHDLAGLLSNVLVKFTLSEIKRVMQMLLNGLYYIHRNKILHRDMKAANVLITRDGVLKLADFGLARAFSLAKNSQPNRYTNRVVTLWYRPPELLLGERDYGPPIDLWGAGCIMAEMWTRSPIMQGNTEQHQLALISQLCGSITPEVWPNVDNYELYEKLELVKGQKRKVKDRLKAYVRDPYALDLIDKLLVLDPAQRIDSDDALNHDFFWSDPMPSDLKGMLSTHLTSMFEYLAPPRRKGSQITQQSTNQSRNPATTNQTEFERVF
Chain of CDK9/T1 (O60563 whole entry partner): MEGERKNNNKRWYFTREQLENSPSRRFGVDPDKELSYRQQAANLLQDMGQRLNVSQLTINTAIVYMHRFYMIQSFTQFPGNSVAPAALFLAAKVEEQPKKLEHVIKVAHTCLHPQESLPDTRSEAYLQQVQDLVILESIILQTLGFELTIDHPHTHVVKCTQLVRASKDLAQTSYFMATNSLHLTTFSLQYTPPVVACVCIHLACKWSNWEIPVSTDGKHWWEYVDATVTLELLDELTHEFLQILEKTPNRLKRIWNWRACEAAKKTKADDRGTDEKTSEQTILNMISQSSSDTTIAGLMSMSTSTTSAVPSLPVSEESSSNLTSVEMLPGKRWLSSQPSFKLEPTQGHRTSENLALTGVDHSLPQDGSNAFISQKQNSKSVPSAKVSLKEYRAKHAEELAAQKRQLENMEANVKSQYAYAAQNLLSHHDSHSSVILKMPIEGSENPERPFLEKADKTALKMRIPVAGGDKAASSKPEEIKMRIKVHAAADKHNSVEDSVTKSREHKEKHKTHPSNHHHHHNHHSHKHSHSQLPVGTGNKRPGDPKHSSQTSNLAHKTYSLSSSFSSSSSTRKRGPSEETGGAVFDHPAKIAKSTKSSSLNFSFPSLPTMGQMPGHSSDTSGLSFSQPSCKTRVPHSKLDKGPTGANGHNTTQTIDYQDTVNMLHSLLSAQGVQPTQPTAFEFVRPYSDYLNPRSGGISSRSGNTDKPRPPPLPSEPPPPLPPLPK

| SMILES | Ki (CDK9/T1) [µM] | Ki (CDK4/D1) [µM] | GI50 (leukemia cell lines) [µM] | Ki (CDKs and other kinases [1]) [µM] | Ki (CDKs and other kinases [2]) [µM] | Ki (CDKs and other kinases [3]) [µM] | Ki (CDK6/D3) [µM] | remaining activity at 10 µM (CDK4/D1) [%] | remaining activity at 10 µM (CDKs and other kinases [1]) [%] | remaining activity at 10 µM (CDKs and other kinases [2]) [%] | remaining activity at 10 µM (CDKs and other kinases [3]) [%] | remaining activity at 10 µM (CDK6/D3) [%] |
| --- | --- | --- | --- | --- | --- | --- | --- | --- | --- | --- | --- | --- |
| N[C@H]1CC[C@H](Nc2ncc(Cl)c(-c3cnc4ccc(-c5ccncc5)cn34)n2)CC1 [Compound 36, (1r,4r)-N^1-(5-Chloro-4-(6-(pyridin-4-yl)imidazo[1,2-a]pyridin-3-yl)pyrimidin-2-yl)cyclohexane-1,4-diamine] | 0.016 | – | 0.004 ± 0.001 | 0.094 | 0.065 | 0.016 | – | 4 | – | – | – | 48 |
| Cc1cnc(N[C@H]2CC[C@H](N)CC2)nc1-c1cnc2ccc(Nc3cnccn3)cn12 [Compound 70, (1r,4r)-N^1-(5-Methyl-4-(6-(pyrazin-2-ylamino)imidazo [1,2-a]pyridin-3-yl)pyrimidin-2-yl)cyclohexane-1,4-diamine] | 0.62 | – | 0.212 ± 0.104 | 3.28 | 4.32 | 1.42 | – | 31 | – | – | – | 70 |
| N[C@H]1CC[C@H](Nc2ncc(Cl)c(-c3cnc4ccc(NCc5ccc(F)cc5)cn34)n2)CC1 [Compound 41, (1r,4r)-N^1-(5-Chloro-4-(6-((4-fluorobenzyl)amino)imidazo[1,2-a]pyridin-3-yl)pyrimidin-2-yl)cyclohexane-1,4-diamine] | 0.045 | – | 0.013 ± 0.002 | 0.958 | 2.66 | 0.059 | – | 40 | – | – | – | 55 |
| Cc1cnc(N[C@H]2CC[C@H](O)CC2)nc1-c1cnc2ccc(Nc3cncnc3)cn12 [Compound 108, (1r,4r)-4-((5-Methyl-4-(6-(pyrimidin-5-ylamino)imidazo [1,2-a]pyridin-3-yl)pyrimidin-2-yl)amino)cyclohexan-1-ol] | 0.018 | – | > 10 | 4.76 | 0.16 | 0.035 | – | 70 | – | – | – | 68 |
| Cc1cnc(N[C@H]2CC[C@H](N)CC2)nc1-c1cnc2ccc(-c3ncccc3F)cn12 [Compound 30, (1r,4r)-N^1-(4-(6-(3-Fluoropyridin-2-yl)imidazo[1,2-a]pyridin-3-yl)-5-methylpyrimidin-2-yl)cyclohexane-1,4-diamine] | 0.12 | – | 0.017 ± 0.006 | – | – | – | – | 17 | 13 | 67 | 49 | 39 |
| Cc1cnc(N[C@H]2CC[C@H](N)CC2)nc1-c1cnc2cc(-c3ccccc3)ccn12 [Compound 53, (1r,4r)-N^1-(5-Methyl-4-(7-phenylimidazo[1,2-a]pyridin-3-yl)pyrimidin-2-yl)cyclohexane-1,4-diamine] | 0.049 | – | 0.002 ± 0.001 | – | – | – | – | 0 | 5 | 18 | 3 | 0 |
| Cc1cnc(NC2CCOCC2)nc1-c1cnc2ccc(Nc3cncnc3)cn12 [Compound 104, 3-(5-Methyl-2-((tetrahydro-2H-pyran-4-yl)amino)pyrimidin-4-yl)-N-(pyrimidin-5-yl)imidazo[1,2-a]pyridin-6-amine] | 0.155 | – | 4.76 ± 1.16 | – | – | – | – | 70 | 57 | 4 | 2 | 73 |
| Cc1cnc(N[C@H]2CC[C@@H](N)CC2)nc1-c1cnc2ccc(Nc3cccnc3)cn12 [Compound 92, (1s,4s)-N^1-(5-Methyl-4-(6-(pyridin-3-ylamino)imidazo [1,2-a]pyridin-3-yl)pyrimidin-2-yl)cyclohexane-1,4-diamine] | 0.089 | – | 0.179 ± 0.061 | – | – | – | – | 37 | 27 | 22 | 27 | 58 |
| Fc1cnc(NC2CCN(CC3CC3)CC2)nc1-c1cnc2ccccn12 [Compound 22, N-(1-(Cyclopropylmethyl)piperidin-4-yl)-5-fluoro-4-(imidazo[1,2-a]pyridin-3-yl)pyrimidin-2-amine] | 0.095 | – | 0.041 ± 0.012 | 0.437 | 1.06 | 1.12 | – | 2 | – | – | – | 42 |
| N[C@H]1CC[C@H](Nc2ncc(Cl)c(-c3cnc4ccc(Br)cn34)n2)CC1 [Compound 12, (1r,4r)-N^1-(4-(6-Bromoimidazo[1,2-a]pyridin-3-yl)-5-chloropyrimidin-2-yl)cyclohexane-1,4-diamine] | 0.008 | – | 0.006 ± 0.001 | 0.032 | 0.121 | 0.013 | – | 4 | – | – | – | 41 |

The next lines start with the values.

| Ki (CDK9/T1) [µM] | Ki (CDK4/D1) [µM] | GI50 (leukemia cell lines) [µM] | Ki (CDKs and other kinases [1]) [µM] | Ki (CDKs and other kinases [2]) [µM] | Ki (CDKs and other kinases [3]) [µM] | Ki (CDK6/D3) [µM] | remaining activity at 10 µM (CDK4/D1) [%] | remaining activity at 10 µM (CDKs and other kinases [1]) [%] | remaining activity at 10 µM (CDKs and other kinases [2]) [%] | remaining activity at 10 µM (CDKs and other kinases [3]) [%] | remaining activity at 10 µM (CDK6/D3) [%] | SMILES |
| --- | --- | --- | --- | --- | --- | --- | --- | --- | --- | --- | --- | --- |
| 0.004 | 0.78 | 0.153 ± 0.021 | 1.67 | 1.5 | 0.31 | 0.53 | – | – | – | – | – | Cc1cnc(NC2CCC(N(C)C)CC2)nc1-c1cnc2ccc(Nc3cccnc3)cn12 (stereo not drawn) [Compound 98, N^1,N^1-Dimethyl-N^4-(5-Methyl-4-(6-(pyridin-3-ylamino)imidazo[1,2-a]pyridin-3-yl)pyrimidin-2-yl)cyclohexane-1,4-diamine] |
| 0.007 | – | < 0.001 | – | – | – | – | 2 | 2 | 0 | 0 | 1 | N[C@H]1CC[C@H](Nc2ncc(F)c(-c3cnc4cc(-c5ccccc5)ccn34)n2)CC1 [Compound 44, (1r,4r)-N^1-(5-Fluoro-4-(7-phenylimidazo[1,2-a]pyridin-3-yl)pyrimidin-2-yl)cyclohexane-1,4-diamine] |
| 0.005 | 2.8 | 0.095 ± 0.031 | 2.24 | 2.16 | 0.09 | 1.05 | – | – | – | – | – | Cc1cnc(N[C@H]2CC[C@H](N)CC2)nc1-c1cnc2ccc(Nc3cccnc3)cn12 [Compound 34, (1r,4r)-N^1-(5-Methyl-4-(6-(pyridin-3-ylamino)imidazo [1,2-a]pyridin-3-yl)pyrimidin-2-yl)cyclohexane-1,4-diamine] |
| 0.008 | – | 0.004 ± 0.001 | – | – | – | – | 0 | 3 | 4 | 1 | 2 | N[C@H]1CC[C@H](Nc2ncc(F)c(-c3cnc4cc(Cl)ccn34)n2)CC1 [Compound 43, (1r,4r)-N^1-(4-(7-Chloroimidazo[1,2-a]pyridin-3-yl)-5-fluoropyrimidin-2-yl)cyclohexane-1,4-diamine] |
| 0.004 | – | 0.008 ± 0.001 | 0.079 | 0.27 | 0.071 | – | 13 | – | – | – | 80 | N[C@H]1CC[C@H](Nc2ncc(Cl)c(-c3cnc4ccc(-c5ccccc5)cn34)n2)CC1 [Compound 79, (1r,4r)-N^1-(5-Chloro-4-(6-phenylimidazo[1,2-a]pyridin-3-yl)pyrimidin-2-yl)cyclohexane-1,4-diamine] |
